Patent US20260240877A1, “INOSITOL PHOSPHATE COMPOUNDS FOR USE IN INCREASING TISSULAR PERFUSION” (SANIFIT THERAPEUTICS, S.A., priority 2019, published 2026)

Assays:
[1] = tested on: Sprague Dawley (SD) rats with vitamin D3-induced limb ischemia; assay: Limb blood perfusion by laser doppler perfusion imaging, prevention of vitamin D3-induced limb ischemia; format: in vivo, rat
Description: Position limb blood perfusion and ischemia status (i.e., blood perfusion including, perfusion unit, perfusion difference and perfusion ratio) is evaluated by laser doppler perfusion imaging using a PeriCam PSI NR imager (Perimed AB, Järfä11a, SE). Subjects are anesthetized using 3% isoflurane delivered in 100% oxygen at a flow rate at 1 L/min before measuring. The perfusion difference and perfusion ratio are calculated by comparing the baseline and any indicated interim or final readings for each group. […]
Limb ischemia status was evaluated at days DO (baseline), D6 and D12 in all rats by laser doppler perfusion imaging. The perfusion difference and perfusion ratio were calculated by comparing the DO baseline and either the D6 and D12 readings for each group. […]
Limb ischemia status was evaluated during treatment and after treatment was interrupted (i.e., DO, D6, D12, D18) in all rats by laser doppler perfusion imaging. The perfusion difference and perfusion ratio were calculated by comparing the baseline and either of the D6, D12, and D18 readings for each group. […]
Limb ischemia status was evaluated during the treatment period (i.e., DO, D6 and D12) by laser doppler perfusion imaging in all rats. The perfusion difference and perfusion ratio were calculated by comparing the baseline and either of the D6 and D12 readings for each group.

[2] = tested on: adenine-induced uremic Sprague Dawley (SD) rats; assay: Heart and aorta calcification (calcium content by ICP-OES), adenine-induced uremic rat model; format: in vivo; settings: Example 6; SNF472 s.c. dosing or Alzet pump; cilostazol 45 mg/kg oral; D21
Description: Uremia and limb ischemia were induced in groups 2-6 by a daily dose of adenine (500 mg/kg, suspended in 1% carboxymethyl cellulose, administered orally) for the first 10 days, and then with a dose of α-calcidol (100 ng/kg in olive oil, administered orally) three times per week from D11 to D19, to accelerate and homogenize the development of cardiovascular calcification and ischemia. Subjects were anesthetized and their blood was obtained in D21. The subjects were sacrificed after exsanguination. Then, their necropsies were performed, and their heart and aorta arteries were collected. The tissues were lyophilized for 24 h and weighed. The lyophilized tissues were then digested using a 1:1 HNO3: HClO4 mixture in a dry bath incubator for 2-4 h at 180° C. The digested tissues were subsequently diluted using ultra-pure Milli-Q water (MilliporeSigma (Merck KGaA), Burlington, MA, US) to a final volume of 10 mL. The calcium content in the tissue samples was quantified via ICP-OES.

[3] = tested on: Sprague Dawley (SD) rats with vitamin D3-induced limb ischemia; assay: Walking ability by treadmill running test, treatment after inception of limb ischemia; format: in vivo, rat; settings: Example 3; 40 mg/kg/day, treatment started 5 days after ischemia induction, D11
Description: (§1) Quantification of walking ability (maximal waling time (MWT) and maximal walking distance (MWD)) are measured by a forced incremental treadmill running test. A two-lane rodent treadmill (LE8709TS; PanLab/Harvard Apparatus, Holliston, MA, US) is employed. The treadmill is maintained at a 15% inclination running at a speed of 15 m/min (25 cm/sec) during the first 5 min, then at 33 cm/see during the following 5 min, and finally, at a speed of 40 cm/see for a maximum of 30 additional minutes.
Maximal walking time (MWT) and maximal walking distance (MWD) were assessed in all groups at DO and in groups 1, 3a, 3b, 4, and 5 at D6 and D11 by the treadmill running test (8 to 12 animals per group and time point). Subjects were acclimatized to the treadmill for two days before conducting the test. On the first day, subjects were exercised for 5 to 10 minutes with the treadmill speed ranging progressively from 15 m/min to 24 m/min. […]
Limb function (MWT and MWD) was assessed in groups 1, 3a, 3b, and 4 using the treadmill running test 15 min after the corresponding daily administration. Limb function in groups 5 was assessed from 3 to 4 hours after treatment.
(§2) The subjects were kept running for 40 minutes or until exhausted (i.e., they remain on the shock grid for five continuous seconds). MWD and MWT was then calculated for each animal.

[4] = tested on: Sprague Dawley (SD) rats treated with vitamin D3; assay: Tissue calcification (calcium content by ICP-OES), VitD rat model, prevention; format: in vivo
Description: Subjects are anesthetized by isoflurane inhalation. Blood is obtained by exsanguination through cardiac puncture. The subjects are then sacrificed and their tissues (e.g., right and left femoral arteries, aorta) are collected. The blood and tissues are processed and analyzed for determining their calcium contents. Calcium content in tissue sample is quantified via inductively coupled plasma optical emission spectrometry (ICP-OES) using an Optima 7300 DV ICP-OES System spectrometer (PerkinElmer, Inc., Waltham, MA, US) according to the manufacturer's instructions. […] The subjects from groups 1, 2, 3 and 5 were sacrificed after exsanguination. Then, their necropsies were performed, and their aortas were collected. The tissues were lyophilized for 24 h and weighed. The lyophilized tissues were then digested using a 1:1 HNO3: HClO4 mixture in a dry bath incubator for 2-4 h at 180° C. The digested tissues were subsequently diluted using ultra-pure Milli-Q water (MilliporeSigma (Merck KGaA), Burlington, MA, US) to a final volume of 10 mL. The calcium content in the aorta sample was quantified via ICP-OES. Subjects were anesthetized and their blood was obtained in D24. The subjects were sacrificed after exsanguination. Then, their necropsies were performed, and their aortas were collected. The tissues were lyophilized for 24 h and weighed. The lyophilized tissues were then digested using a 1:1 HNO3: HClO4 mixture in a dry bath incubator for 2-4 h at 180° C. The digested tissues were subsequently diluted using ultra-pure Milli-Q water (MilliporeSigma (Merck KGaA), Burlington, MA, US) to a final volume of 10 mL. The calcium content in the tissue samples was quantified via ICP-OES. Subjects were anesthetized and their blood was obtained in D12. The subjects were sacrificed after exsanguination. Then, their necropsies were performed, and their heart and aorta arteries were collected. The tissues were lyophilized for 24 h and weighed. […] The calcium content in the tissue samples was quantified via ICP-OES.

[5] = in vivo; cited from earlier work
[6] = tested on: adenine-induced uremic Sprague Dawley (SD) rats; assay: Limb blood perfusion by laser doppler perfusion imaging, adenine-induced uremic rat model; format: in vivo; settings: Example 6; SNF472 30, 45 mg/kg s.c. or 400 mg/4 weeks Alzet pump; cilostazol 45 mg/kg oral; D1 to D21
Description: Position limb blood perfusion and ischemia status (i.e., blood perfusion including, perfusion unit, perfusion difference and perfusion ratio) is evaluated by laser doppler perfusion imaging using a PeriCam PSI NR imager (Perimed AB, Järfä11a, SE). Subjects are anesthetized using 3% isoflurane delivered in 100% oxygen at a flow rate at 1 L/min before measuring. The perfusion difference and perfusion ratio are calculated by comparing the baseline and any indicated interim or final readings for each group.
Uremia and limb ischemia were induced in groups 2-6 by a daily dose of adenine (500 mg/kg, suspended in 1% carboxymethyl cellulose, administered orally) for the first 10 days, and then with a dose of α-calcidol (100 ng/kg in olive oil, administered orally) three times per week from D11 to D19, to accelerate and homogenize the development of cardiovascular calcification and ischemia.
Animals in group 6 were administered orally 45 mg/kg cilostazol (C20H27N5O2, free base 369.46 g/mol; lot no. LRAB9590, Sigma-Aldrich Corp., St. Louis, MO, US) in a 5% CMC sodium salt in water solution (5 mL/kg) daily from D1 to D21.
Limb ischemia status was evaluated during treatment (i.e., DO, D10 and D17 and D21) in all rats by laser doppler perfusion imaging. The perfusion difference and perfusion ratio were calculated by comparing the baseline and of the D10, D17 and D21 readings for each group.

[7] = tested on: Sprague Dawley (SD) rats with vitamin D3-induced limb ischemia; assay: Walking ability (MWD, MWT) by treadmill running test, prevention of vitamin D3-induced limb ischemia; format: in vivo, rat
Description: as §1
Subjects are exercised in the treadmill for acclimatization according to a set protocol prior to testing.
Subjects are kept running for up to 40 min or until exhausted (i.e., they remain on the shock grid for five continuous seconds) during the test. MWD and MWT are then calculated for each animal.
Maximal waling time (MWT) and maximal walking distance (MWD) were assessed in groups 1~4 by the treadmill running test (8 to10 animals per group and time point) in DO, D5, D10, and D17.
Subjects were acclimatized to the treadmill for two days before conducting the test. On the first day, subjects were exercised for 5 to 10 minutes with the treadmill speed ranging progressively from 15 m/min to 24 m/min. On the second day, the subjects were exercised initially at a speed of 15 m/min for the 5 minutes. Then, they were exercised at 19.8 m/min (33 cm/sec) for 5 additional minutes. Finally, the subjects were exercised at 24 m/min (40 cm/sec) for a maximum 30 additional minutes. Preoperative walking time and distance recordings were obtained.
Limb function (MWT and MWD) was assessed in groups 1, 2, and 3 using the treadmill running test 15 min after the corresponding daily administration. Limb function in groups 4 was assessed from 3 to 4 hours after treatment.
as §2
Maximal walking time (MWT) and maximal walking distance (MWD) were assessed in groups 1-8 by the treadmill running test (8 to12 animals per group and time point) in DO, D5 and D10.
Limb function (MWT and MWD) was assessed in groups 1, 2, 3, 4, 5, 6 and 7 using the treadmill running test 15 min after the corresponding daily administration. Limb function in group 8 was assessed from 3 to 4 hours after treatment.

[8] = tested on: Sprague Dawley (SD) rats with vitamin D3-induced limb ischemia; assay: Limb blood perfusion by laser doppler perfusion imaging, treatment after inception of limb ischemia; format: in vivo, rat; settings: Example 3; 40 mg/kg daily D5 to D13
Description: Position limb blood perfusion and ischemia status (i.e., blood perfusion including, perfusion unit, perfusion difference and perfusion ratio) is evaluated by laser doppler perfusion imaging using a PeriCam PSI NR imager (Perimed AB, Järfä11a, SE). Subjects are anesthetized using 3% isoflurane delivered in 100% oxygen at a flow rate at 1 L/min before measuring. The perfusion difference and perfusion ratio are calculated by comparing the baseline and any indicated interim or final readings for each group. […] Limb ischemia was induced in the subjects of groups 2-5 by subcutaneous administration of 120,000 IU/kg vitamin D3 (cholecalciferol, Duphafral D3 1000; Zoetis Inc., Parsippany, NJ, US) in physiological saline solution (2 mL/kg) every day during D1 to D3. The group 1 subjects were administered physiological saline solution (2 mL/kg) subcutaneously every day from D1 to D3 with no vitamin D3. Subjects in groups 3a placebo were administered 2 mL/kg of physiological saline solution daily from D5 to D13 via subcutaneous route. Subjects in group 3b placebo were administered orally 5 mL/kg of a 5% CMC sodium salt in water solution daily from D5 to D13. […] The perfusion difference and perfusion ratio were calculated by comparing the baseline and either D5 and D13 readings for each group.

[9] = tested on: people with symptomatic PAD; settings: recent studies in PAD patients; cited from earlier work

In the case of `O=C1CCc2cc(OCCCCc3nnnn3C3CCCCC3)ccc2N1` [Cilostazol, 6-[4-(1-cyclohexyl-1H-tetrazol-5yl)butoxy]-3,4-dihydro-2 (1H)-quinolinone], the “rat limb ischemia (blood perfusion)” value ([1]; Example 2, 20 mg/kg daily D1 to D12 (SNF472 s.c., cilostazol oral)) is reported as “not effective”, the “rat limb ischemia (blood perfusion)” value ([1]; Example 5, SNF472 1, 7.5, 15, 30, 45 mg/kg s.c., cilostazol 45 mg/kg oral, daily D1 to D12) is reported as “not effective” and the “heart and aorta arteries calcification in uremic rats” value [2] is reported as “not active against calcification”. The “improvement of walking ability (MWD) compared to vehicle” value [3] was “not effective”, the “inhibition of aorta calcification compared to placebo” value ([4]; Example 1, 20 mg/kg daily, D12) was “not active against calcification” and the “inhibition of aorta calcification compared to placebo” value ([4]; Example 2, 20 mg/kg daily D1 to D12, D24 (12 days after interruption of treatment)) was “not active against calcification”. For the same compound, the “heart and aorta arteries calcification” value ([4]; Example 5, SNF472 1-45 mg/kg s.c., cilostazol 45 mg/kg oral, D12) was “not active against calcification”, the side effects [5] was “headache, diarrhea, palpitations, and lightheadedness” and the “rat limb ischemia in uremic rats (blood perfusion)” value [6] was “not effective”. For the same compound, the “improvement of Maximal Walking Distance (MWD) compared to vehicle” value ([7]; Example 2, 20 mg/kg daily, D10) was “+54%”, the “improvement of Maximal Walking Time (MWT) compared to vehicle” value ([7]; Example 2, 20 mg/kg daily, D10) was “+46%” and the “effect on walking ability after interrupting treatment” value ([7]; Example 2, D17, 5 days after interrupting treatment) was “lost its beneficial effects”. The “walking ability compared to vehicle” value ([7]; Example 5, SNF472 1-45 mg/kg s.c., cilostazol 45 mg/kg oral, daily D1 to D12) was “improved walking ability” and the “limbs blood perfusion in D13 compared to D5 before treatment” value [8] was “No improvement or ischemia rescue”.

In the case of `CC(=O)CCCCn1c(=O)c2c(ncn2C)n(C)c1=O` [pentoxifylline], the “intermittent claudication symptoms or maximal walking distance versus placebo” value [9] is listed as “not significantly improved”.
